US6806370B2, “NK-1 receptor active amine oxide prodrugs” (Hoffmann-La Roche Inc., priority 2000, dated 2004)

How the values were obtained:
Assay type in all cases: in vitro ADME
Conditions in all cases: 1 μg/mL, 37° C.
[1] = Conversion of prodrug to drug in plasma (rat)
Procedure: (§1) The conversion of N-oxide prodrugs to the corresponding parent compounds is due to a reduction mechanism. […] The presence of an oxidant in the work-up solution should help preventing the reduction of the N-oxides.
(§2) Conversion in plasma: 10 μLs of a 100 μg/mL DMSO solution of the pro-drug were added to 1 mL plasma to reach a final concentration of 1 μg/mL. The incubation was performed at 37° C. and 8 aliquots were taken at different time points over 30 min. These aliquots were treated with 3 volumes of cold MeOH containing H2O2 (final concentration 10% v/v) and centrifuged at 3500 g for 20 min at 10° C. The supernatant was directly used to determine the drug levels by LC-MS-MS (HPLC chromatography on reversed phase column X-Terra MS C18 […] 2.1×30 mm Waters at 40° C., using a polarity gradient MeOH/Form.Ac.
(§3) 1% 20/80/MeOH; run time; 3.0 min; inj. Vol.: 10 μL; Flow: […] and MS/MS detection on a PE Sciex API-2000 MS/MS spectrometer; ion source: Turbospray; ionisation mode: ESP+).
(§4) Sample stability (plasma and blood): The final matrix were first prepared (plasma or blood treated with 3 volumes of cold MeOH containing H2O2—10% v/v—and centrifuged at 3500 g for 20 min at 10° C.) and then incubated at 37° C. into two tubes; the pro-drug or the drug were then incubated and finally their concentration determined by LC-MS-MS as described above.

[2] = Conversion of prodrug to drug in plasma (human)
Procedure: as §1, §2, §3, §4

[3] = Conversion of prodrug to drug in plasma (dog)
Procedure: as §1, §2, §3, §4

## Cc1ccccc1-c1cc([N+]2([O-])CCOCC2)ncc1N(C)C(=O)C(C)(C)c1cc(C(F)(F)F)cc(C(F)(F)F)c1 [Example 1, 2-(3,5-Bis-trifluoromethyl-phenyl)-N-methyl-N-[6-(4-oxy-morpholin-4-yl)-4-o-tolyl-pyridin-3-yl]-isobutyramide]
[1]
  t½ conversion prodrug to drug, Rat plasma: 4 h
[2]
  t½ conversion prodrug to drug, Human plasma: 8 h
[3]
  t½ conversion prodrug to drug, Dog plasma: 18 h

## Cc1ccccc1-c1cc([N+]2([O-])CCOCC2)ncc1C(=O)N(C)Cc1cc(C(F)(F)F)cc(C(F)(F)F)c1.O [Example 16, N-(3,5-Bis-trifluoromethyl-benzyl)-N-methyl-6-(4-oxy-morpholin-4-yl)-4-o-tolyl-nicotinamide monohydrate]
[1]
  t½ conversion prodrug to drug, Rat plasma: 2 h
[2]
  t½ conversion prodrug to drug, Human plasma: 6 h
[3]
  t½ conversion prodrug to drug, Dog plasma: 16 h

## CN(C(=O)C(C)(C)c1cc(C(F)(F)F)cc(C(F)(F)F)c1)c1cnc([N+]2([O-])CCOCC2)cc1-c1ccccc1Cl [Example 2, 2-(3,5-Bis-trifluoromethyl-phenyl)-N-[4-(2-chloro-phenyl)-6-(4-oxy-morpholin-4-yl)-pyridin-3-yl]-N-methyl-isobutyramide]
[1]
  t½ conversion prodrug to drug, Rat plasma: 5 h
[2]
  t½ conversion prodrug to drug, Human plasma: 12 h
[3]
  t½ conversion prodrug to drug, Dog plasma: 18 h
